The subject of one assay is 3T3-L1 adipocytes. Nature of the assay: Thermogenic gene expression in 3T3-L1 adipocytes (TaqMan / RT-PCR). Type of assay: cell-based, mouse. Here is the method:
FIGS. 9A to 9D show DRG neurons (500 neurons per well) cultured in DRG culture medium only, or DRG culture medium with NT-3 (1 ng/mL), with NGF (10 ng/mL), with WT secretome (1/1, v/v), or with Aldh1a1^−/− secretome (1/1, v/v) for 24 hours. WT and Aldh1a1^−/− adipocytes differentiated for 5 days. Secretome is the media collected from these cells for 24 h. Neurite outgrowth parameters were assayed using the Thermo Scientific™ ArrayScan™ XTI Live High Content microscope and analyzed with the Neuronal Profiling Algorithm (ThermoFisher). Nine independent experiments were performed using DRG from three mice. Each DRG batch was analyzed in triplicate. Data are shown as mean±SD obtained with one DRG batch. Asterisks indicate P<0.05 between different groups; Mann-Whitney U test. FIG. 9A: Representative images show ~25% of area used for the automatic quantification of neuronal parameters in FIG. 3 per one condition. […] FIG. 9B: Secreted EFNA5 levels in the medium from 3T3-L1 preadipocytes and adipocytes differentiated for 4d were analyzed by ELISA. FIG. 9C: Basal metabolic rate (heat) was measured in PBS- and EFNA5-injected mice from Table 1, Study 4 by an open circuit indirect calorimetry treadmill. […] Expression was measured by RT-PCR and normalized by 18S.
FIGS. 11A to 11I show adipokine Ereg is bilaterally associated with obesity and thermogenesis and activates PPARα. […] FIG. 11B: Ereg expression was measured in non-differentiated and differentiated (day 5) 3T3-L1 adipocytes (Mann-Whitney test) using a customized NanoString mouse panel. FIG. 11C: Ereg expression was measured in differentiated (day 5) 3T3-L1 and Aldh1a1^−/− adipocytes by Taqman and normalized to TATA box protein (TBP). FIG. 11D: Plasma EREG concentrations were measured in mice from Study 1 by western blot. […] FIG. 11E: Plasma EREG concentrations were measured and quantified in iAb of WT and ob/ob mice from Study 2 by western blot (n=5 per each group). […] FIG. 11F: EREG was measured in iAb, subcutaneous and brown fat by western blot. […] Expression level were measured by Taqman and normalized by TBP. […]

A further assay concerns STZ mice. Nature of the assay: AAC2, INS and AAC2-INS treatment of STZ mice (streptozotocin-induced type 1 diabetes). The settings on record: mouse, in vivo. On the procedure:
The untreated STZ mice died 32 days after STZ induction of experimental type 1 diabetes. […] Liver toxicity was measured by plasma levels of liver enzyme aspartate aminotransferase (AST).
Human INS was used for treatment to distinguish from endogenous mouse INS. […] Insulin tolerance test (ITT) was used to assess insulin sensitivity. […] Glucose tolerance test (GTT) was used to assess glucose tolerance.
[…] SLC6A6 is a principal transporter for neurotransmitter and osmolyte taurine, in all treated STZ mice. […] MVK a key kinase in cholesterol synthesis pathway. […] GPX6 a key antioxidant enzyme induced in the liver in response to oxidative stress.
Cognitive performance was measured using Barnes maze behavioral test to measure spatial learning (escape latency (60B) and number of errors (60C)) and memory (60D).

Consider “EREG: Epiregulin, member of the epidermal growth factor family; recombinant mouse or human protein”, for which the “expression of thermogenic gene Pgc1a” value in the assay on 3T3-L1 adipocytes (10 ng/ml recombinant EREG, FIG. 22) is recorded as “increases”. For the same substance, in the assay with 3T3-L1 adipocytes (recombinant EREG 50 ng/mL, day 5), the “Ucp1 and Ucp2 expression” value is recorded as “induced”.

Turning to insulin: insulin (bovine or human), in the assay on STZ mice, the “expression of Glutathone peroxidase (GPX6)” value was “significantly increased” and the “expression of insulin 1 gene (Ins1) in the brain” value is recorded as “detrimental suppression”.
